Source: US20250325555A1, “Method of Treating Obesity with a Luteinizing Hormone Receptor Agonist” (ICAHN SCHOOL OF MEDICINE AT MOUNT SINAI, priority 2022, published 2025)
pEC50: −log10 of the molar value.

Legend:
[1] = test system: organoids derived from 3T3-L1 cells; test: adipose organoids derived from 3T3-L1 cells, thickness of differentiating cell layer; type: cell-based, mouse; conditions: exposed for 3 days, further differentiated 7 days
Method: (§1) In order to study the mechanism of LHCGR activation on body fat, 3T3.L1 pre-adipocytes and adipose organoids were used. Oil Red 0 staining can be used to mark lipid-containing vacuoles and quantify cell lipid content. […] The thickness of the “differentiating cell layer” was measured with QuPath-0.2.3.

[2] = biological target: T1, adipose LHCGR (Mus musculus, UniProt P30730); test: ERK1/2 phosphorylation in differentiated 3T3-L1 adipocytes (Western blot); type: cell-based
T1 construct: host or cells: differentiated 3T3-L1 adipocytes
Text: siRNA KNOCKDOWN: Lentiviral vectors expressing Lhcgr siRNA (ABM 2649609) or siControl (ABM LVP015-G) were used per manufacturer's recommendation.
WESTERN BLOTTING: Proteins were blotted with commercial antibodies (Cell Signaling, Phospho-ERK1/2, 9101S; ERK1/2, 4695S, 1:5000).

[3] = test system: C57BL/6 mice fed on high-fat diet; test: ORG 43553 in C57BL/6 mice on high-fat diet, 9 weeks (Example 6); type: in vivo, mouse; conditions: 17 mg/kg subcutaneous
Method: In order to evaluate the effect of treatment with LHCGR agonist ORG 43553 on body fat in mice, 14-week-old C57BL/6 mice (25 mice/group) were treated with subcutaneous injections of vehicle or ORG 43553 (17 mg/kg), and fed on high-fat diet for 9 weeks.

[4] = test system: mice on high-fat diet; test: metabolic cages, mice on high-fat diet; type: in vivo, mouse; conditions: 17 mg/kg subcutaneous, monitored for 48 hours
Method: (§2) 3T3-L1 adipocytes were thus pretreated with ORG 43553 for 1 hour before measuring oxygen consumption rate (OCR) on a Seahorse Xf96 Analyzer. […] ORG 43553 increased OCR at baseline and upon oligomycin exposure, indicating mitochondria proton leak—a surrogate for thermogenesis. To confirm increased energy expenditure in vivo, mice (N=6/group) on high-fat diet were acclimated to metabolic cages for 1 day, before being injected subcutaneously with ORG 43553 (17 mg/kg, blue line) or vehicle and monitored for 48 hours.

[5] = test system: male C57BL/6 mice; test: ORG 43553 in male C57BL/6 mice, 9 weeks (Example 8, incl. replication cohort); type: in vivo, mouse
Method: Next, the LHCGR agonist ORG 43553 was injected into male C57BL/6 mice (N=24/group) (17 mg/kg, subcutaneous, twice-a-week) for 9 weeks.

[6] = test system: 3T3-L1 adipocytes; test: oil droplet accumulation (Oil Red O staining) in 3T3-L1 adipocytes; type: cell-based, mouse; conditions: 6 nM, 12 hours
Method: as §1

[7] = test system: 3T3-L1 adipocytes; test: oxygen consumption rate (OCR) on Seahorse Xf96 Analyzer; type: cell-based, mouse; conditions: pretreated for 1 hour
Method: as §2

[8] = biological target: human LHCGR (Homo sapiens, UniProt P22888); conditions: read-out: EC50, agonistic activity to human LHCGR; cited from earlier work
[9] = 17 mg/kg subcutaneous twice-a-week, 9 weeks

T1 sequence (P30730 27-700): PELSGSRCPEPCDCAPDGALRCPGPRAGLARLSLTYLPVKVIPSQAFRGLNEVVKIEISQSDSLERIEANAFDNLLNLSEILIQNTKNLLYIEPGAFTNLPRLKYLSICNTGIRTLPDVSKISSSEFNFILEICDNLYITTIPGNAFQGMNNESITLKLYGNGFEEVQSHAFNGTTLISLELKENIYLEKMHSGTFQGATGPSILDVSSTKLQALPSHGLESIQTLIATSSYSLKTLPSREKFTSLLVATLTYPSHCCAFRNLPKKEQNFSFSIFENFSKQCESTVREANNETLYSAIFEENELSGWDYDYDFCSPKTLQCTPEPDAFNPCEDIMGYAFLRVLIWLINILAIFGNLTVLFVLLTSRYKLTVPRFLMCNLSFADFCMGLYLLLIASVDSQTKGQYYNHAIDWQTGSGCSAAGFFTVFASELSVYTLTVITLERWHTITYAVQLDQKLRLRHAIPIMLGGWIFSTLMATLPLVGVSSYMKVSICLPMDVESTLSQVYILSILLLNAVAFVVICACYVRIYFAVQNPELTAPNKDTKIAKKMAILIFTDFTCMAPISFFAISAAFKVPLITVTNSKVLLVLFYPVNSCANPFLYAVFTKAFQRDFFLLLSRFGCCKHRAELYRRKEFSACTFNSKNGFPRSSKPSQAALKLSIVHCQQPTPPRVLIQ
Chain of human LHCGR (P22888 27-699): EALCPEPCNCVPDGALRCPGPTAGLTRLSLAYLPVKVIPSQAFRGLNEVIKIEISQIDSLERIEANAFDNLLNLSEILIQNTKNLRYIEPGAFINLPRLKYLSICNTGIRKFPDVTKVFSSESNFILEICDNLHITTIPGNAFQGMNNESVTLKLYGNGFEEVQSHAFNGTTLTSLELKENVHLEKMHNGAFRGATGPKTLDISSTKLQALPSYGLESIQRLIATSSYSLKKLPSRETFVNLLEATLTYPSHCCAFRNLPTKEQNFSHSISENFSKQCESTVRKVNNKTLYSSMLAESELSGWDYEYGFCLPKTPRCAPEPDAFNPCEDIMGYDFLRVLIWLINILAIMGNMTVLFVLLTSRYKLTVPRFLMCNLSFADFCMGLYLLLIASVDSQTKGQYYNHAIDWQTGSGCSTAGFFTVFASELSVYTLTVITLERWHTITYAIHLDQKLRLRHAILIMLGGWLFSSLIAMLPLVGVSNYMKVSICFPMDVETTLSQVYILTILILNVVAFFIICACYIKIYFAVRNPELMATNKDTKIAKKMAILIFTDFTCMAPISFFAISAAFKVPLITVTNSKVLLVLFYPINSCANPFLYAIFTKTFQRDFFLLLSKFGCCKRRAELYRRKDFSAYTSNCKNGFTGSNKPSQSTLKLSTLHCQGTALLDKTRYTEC

ERK1/2 phosphorylation with LHCGR siRNA knockdown ([2]; siLhcgr 3T3-L1 cells): no signal
Structure (SMILES): CSc1nc(-c2cccc(NC(=O)CN3CCOCC3)c2)c2c(N)c(C(=O)NC(C)(C)C)sc2n1 [ORG 43553, 5-amino-2-methylsulfanyl-4-[3-(2-morpholin-4-yl-acetylamino)-phenyl]-thieno[2,3-d]pyrimidine-6-carboxylic acid tert-butylamide]
differentiated layer of organoids (thickness) compared to vehicle-treated organoids [1]: substantial reduction
ERK1/2 phosphorylation ([2]; differentiated 3T3-L1 adipocytes): rapidly induced ERK1/2 phosphorylation in a concentration-dependent manner
diet-induced fat mass [3]: reduced
gWAT weight [3]: lower
iWAT weight [3]: lower
lean mass [3]: but not lean mass
mWAT weight [3]: lower
total mass [3]: reduced
energy expenditure (EE) [4]: increased acutely
oxygen consumption (VO2) [4]: increased acutely
fat mass [5, 9]: significant reduction
gWAT [5, 9]: reduced
iWAT [5, 9]: reduced
number of adipocytes in iWAT with areas below 4000 μm^2 [5, 9]: greater numbers
number of adipocytes in iWAT with areas greater than 4000 μm^2 [5, 9]: fewer
renal WAT (rWAT) [5, 9]: reduced
fat mass ([5]; replication cohort): significant reduction
gWAT ([5]; replication cohort): reduced
iWAT ([5]; replication cohort): reduced
mWAT ([5]; replication cohort): reduced
total mass ([5]; replication cohort): significant reduction
oil droplet accumulation (Oil Red O staining) [6]: reduced oil droplet accumulation
oxygen consumption rate (OCR) at baseline [7]: increased
oxygen consumption rate (OCR) upon oligomycin exposure [7]: increased
pEC50 [8]: 8.43
